# According to patent US20240093034A1, “FLUORESCENT DYES” (EXOPHARM LIMITED, priority 2020, published 2024):
# Tested on: MSC-EVs
# Assay: Dye labelling of MSC-EV preparations analysed by imaging flow cytometry (IFCM)
# Protocol: MSC-EVs were prepared form human platelet lysate containing MSC-conditioned media by polyethylene glycol 6000 precipitation followed by ultracentrifugation, as described previously (Borger, V. et al, 2020, Scaled Isolation of Mesenchymal Stem/Stromal Cell-Derived Extracellular Vesicles. Curr Protoc Stem Cell Biol 55, e128; Kordelas et al., 2014, MSC-derived exosomes: a novel tool to treat therapy-refractory graft-versus-host disease. Leukemia 28, 970-973; Ludwig et al., 2018, Precipitation with polyethylene glycol followed by washing and pelleting by ultracentrifugation enriches extracellular vesicles from tissue culture supernatants in small and large scales. J Extracell Vesicles 7, 1528109). Conditioned media were harvested every 48 h. Obtained MSC-EV preparations were diluted in NaCl-HEPES buffer (Sigma-Aldrich, Taufkirchen, Germany) such that 1 mL of final samples contained the preparation yield of the conditioned media of approximately 4.0×10^7 cells.
# The staining with CFSE (Thermo Fisher Scientific, Darmstadt, Germany) was based on the manufacturer's protocol. Slight modifications were required to reduce the signal from unbound CFSE. Briefly, the CFSE stock solution was diluted to a working solution of 10 μM CFSE. The solution was centrifuged three times for 10 min at 17,000 × g. Subsequently, 25 μL of MSC-EV preparations, corresponding to the amount of EVs derived from 1×10^6 MSCs, were incubated with the centrifuged CFSE solution for 20 min at 37° C. The sample was diluted 1:20 to a final volume of 1 mL prior to analysis.
# The staining of MSC-EV preparations with Calcein AM followed the manufacturer's instructions. Briefly, 25 μL of MSC-EV preparations were incubated with 25 μL of a 20 μM solution of Calcein AM (Thermo Fisher Scientific) for 40 min at 37° C. The sample was diluted 1:20 to a final volume of 1 mL to reduce background noise, avoiding the requirement of a washing step.
# The staining of MSC-EV preparations with BODIPY-TR-Ceramide followed the manufacturer's instructions. Briefly, 25 μL of the MSC-EV preparation, corresponding to EVs purified from […], were incubated with 25 μL of a 20 μM solution of BODIPY TR Ceramide (Thermo Fisher Scientific) for 20 min at 37° C. 450 μL of 0.9% NaCl with 10mM HEPES (0.9% NaCl, Melsungen, B. Braun; HEPES, Thermo Fisher Scientific) buffer was added and the EVs were washed by using a Centrifugal Concentrator (Vivaspin 500; Sartorius, Gottingen, Germany). The retentate was adjusted to 500 μL prior to analysis.
# The staining of MSC-EV preparations with PKH67 followed the manufacturer's instructions for labeling EVs (Thermo Fisher Scientific). Briefly, using 200 μL of given MSC-EV preparations, corresponding to EVs purified from 8×10^6 cells, the solution was adjusted with Diluent C to a final volume of 1 mL. […]
substance,measurement,setting,value
Calcein AM [reference compound],labelling of sEVs in MSC-EV preparations (conclusion),"IFCM, with anti-CD9, anti-CD63, anti-CD81 counterstaining where done",do not Label
same,labelled objects in MSC-EV preparations (FIG. 8),dye + MSC-EVs,failed to label any detectable objects
